# Measured values reported in patent US7973047B2, “Beta-Secretase modulators and methods of use” (Amgen Inc., priority 2010, dated 2011).
# System: Aβ40 in conditioned medium of cells stably expressing Amyloid Precursor Protein (APP)
# Experiment: BACE cell-based assay: Aβ40 in conditioned medium by sandwich ELISA
# Conditions: cell based assay data of Table 4; unit inferred; read-out: Cell Assay
# Method in brief: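 APP-stable cells grown 24 h in DMEM/10% FBS, then exposed to compounds for 24 h in a 10-point dose series starting at 100 or 10 μM, 0.1% DMSO final. Medium Aβ40 measured by pAb40/biotinylated 6E10 sandwich ELISA with Europium time-resolved fluorescence; IC50 from percent inhibition.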
row,IC50,SMILES
1,433 nM,"CC#CC[C@H](NC(C)=O)[C@H](O)CN[C@H]1CC2(CCC2)Oc2ncc(CC(C)(C)C)cc21 [compound 705, N-((1S)-1-((1R)-2-(((4′S)-6′-(2,2-dimethylpropyl)-3′,4′-dihydrospiro[cyclobutane-1,2′-pyrano[2,3-b]pyridin]-4′-yl)amino)-1-hydroxyethyl)-3-pentyn-1-yl)acetamide]"
2,9.89 nM,"CC(=O)N[C@@H](Cc1ccnc(C)c1)[C@H](O)CN[C@H]1CC2(CCC2)Oc2ncc(CC(C)(C)C)cc21 [compound 640, N-((1S,2R)-3-(((4′S)-6′-(2,2-dimethylpropyl)-3′,4′-dihydrospiro[cyclobutane-1,2′-pyrano[2,3-b]pyridin]-4′-yl)amino)-2-hydroxy-1-((2-methyl-4-pyridinyl)methyl)propyl)acetamide]"
3,36.4 nM,CC(C)(C)Cc1cnc2c(c1)[C@@H](NC[C@@H](O)[C@H](Cc1ccc(F)cc1)NC(=O)C(F)F)CC1(CCC1)O2 [compound 630]
4,105 nM,"CC(=O)N[C@@H](Cc1ccc(F)cc1)[C@H](O)CN[C@H]1CC2(CCC2)Nc2ccc(CC(C)(C)C)cc21 [compound 559, N-((1S,2R)-3-(((4′S)-6′-(2,2-dimethylpropyl)-3′,4′-dihydro-1′H-spiro[cyclobutane-1,2′-quinolin]-4′-yl)amino)-1-((4-fluorophenyl)methyl)-2-hydroxypropyl)acetamide]"
5,66.5 nM,CC(=O)N[C@@H](Cc1ccc(F)cc1)[C@H](O)CN[C@H]1CC2(CCC2)Oc2ncc(CC3CCC3)cc21 [compound 682]
6,6.79 nM,"COc1cc(C[C@H](NC(C)=O)[C@H](O)CN[C@H]2CC3(CCC3)Oc3ncc(CC(C)(C)C)cc32)ccn1 [compound 643, N-((1S,2R)-3-(((4′S)-6′-(2,2-dimethylpropyl)-3′,4′-dihydrospiro[cyclobutane-1,2′-pyrano[2,3-b]pyridin]-4′-yl)amino)-2-hydroxy-1-((2-(methyloxy)-4-pyridinyl)methyl)propyl)acetamide]"
7,64.3 nM,"CC(=O)N[C@@H](Cc1ccc(F)cc1)[C@H](O)CN[C@H]1CC2(CCC2)Oc2c1cc(CC(C)(C)C)nc2OC(C)C [compound 608, N-((1S,2R)-3-(((4′S)-6′-(2,2-dimethylpropyl)-8′-((1-methylethyl)oxy)-3′,4′-dihydrospiro[cyclobutane-1,2′-pyrano[2,3-c]pyridin]-4′-yl)amino)-1-((4-fluorophenyl)methyl)-2-hydroxypropyl)acetamide]"
8,23.8 nM,CC(=O)N[C@@H](Cc1ccc(F)cc1)[C@H](O)CN[C@H]1C[C@]2(CCOC2)Oc2ncc(CC(C)(C)C)cc21 [compound 672]
9,32.6 nM,CC(=O)N[C@@H](Cc1ccc(F)cc1)[C@H](O)CN[C@H]1C[C@]2(CC[C@@H]2C)Oc2ncc(CC(C)(C)C)cc21 [compound 619]
10,29.6 nM,"CC(=O)N[C@@H](Cc1ccc(Cl)c(Cl)c1)[C@H](O)CN[C@H]1CC2(CCC2)Oc2ncc(CC(C)(C)C)cc21 [compound 711, N-((1S,2R)-1-((3,4-dichlorophenyl)methyl)-3-(((4′S)-6′-(2,2-dimethylpropyl)-3′,4′-dihydrospiro[cyclobutane-1,2′-pyrano[2,3-b]pyridin]-4′-yl)amino)-2-hydroxypropyl)acetamide]"
11,13.8 nM,CC(=O)N[C@@H](Cc1ccc(F)cc1)[C@H](O)CN[C@H]1CC(C)(C)Oc2ncc(CC(C)(C)C)cc21 [compound 572]
12,3.94 nM,CC(=O)N[C@@H](Cc1cccc(F)c1)[C@H](O)CN[C@H]1CC2(CCC2)Oc2ncc(CC(C)(C)F)cc21 [compound 525]
13,62.7 nM,"CC(=O)N[C@@H](Cc1ccc(F)cc1)[C@H](O)CN[C@H]1C[C@]2(C[C@@H](C)C2)Oc2ncc(CC(C)C)cc21 [compound 616, N-((1S,2R)-1-((4-fluorophenyl)methyl)-2-hydroxy-3-(((1r,3S,4′S)-3-methyl-6′-(2-methylpropyl)-3′,4′-dihydrospiro[cyclobutane-1,2′-pyrano[2,3-b]pyridin]-4′-yl)amino)propyl)acetamide]"
14,20.2 nM,CC(=O)N[C@@H](Cc1ccc(F)cc1)[C@H](O)CN[C@H]1CC2(CCC2)Oc2ncc(CC(C)(C)C#N)cc21 [compound 650]
15,631 nM,CC(=O)N[C@@H](Cc1cc(F)cc(F)c1)[C@H](O)CN[C@H]1CC2(CCC2)Oc2ccc(-c3ncco3)cc21 [compound 544]
16,120 nM,COCC(=O)N[C@@H](Cc1cccc(C#N)c1)[C@H](O)CN[C@H]1CC(C)(C)Oc2ccc(Br)cc21 [compound 527]
17,7.84 nM,CC(=O)N[C@@H](Cc1cc(F)cc(F)c1)[C@H](O)CN[C@H]1CC2(CCC2)Oc2ncc(CC3CC3)cc21 [compound 687]
18,28.5 nM,CC(=O)N[C@@H](Cc1ccc(F)c(C)c1)[C@H](O)CN[C@H]1CC2(CCC2)Oc2ncc(CC(C)(C)F)cc21 [compound 578]
19,922 nM,"CCCc1scnc1C[C@H](NC(C)=O)[C@H](O)CN[C@H]1CC2(CCC2)Oc2ncc(CC(C)(C)C)cc21 [compound 637, N-((1S,2R)-3-(((4′S)-6′-(2,2-dimethylpropyl)-3′,4′-dihydrospiro[cyclobutane-1,2′-pyrano[2,3-b]pyridin]-4′-yl)amino)-2-hydroxy-1-((5-propyl-1,3-thiazol-4-yl)methyl)propyl)acetamide]"
20,3.46 nM,CC(=O)N[C@@H](Cc1cc(F)cc(F)c1)[C@H](O)CN[C@H]1CC2(CCC2)Oc2ncc([C@H](F)C(C)(C)C)cc21 [compound 681]
21,8.53 nM,COc1ccc(C[C@H](NC(C)=O)[C@H](O)CN[C@H]2CC3(CCC3)Oc3ncc(CC(C)(C)C)cc32)cc1F [compound 665]
22,14.2 nM,"CC(=O)N[C@@H](Cc1cscn1)[C@H](O)CN[C@H]1CC2(CCC2)Oc2ncc(CC(C)(C)C)cc21 [compound 634, N-((1S,2R)-3-(((4′S)-6′-(2,2-dimethylpropyl)-3′,4′-dihydrospiro[cyclobutane-1,2′-pyrano[2,3-b]pyridin]-4′-yl)amino)-2-hydroxy-1-(1,3-thiazol-4-ylmethyl)propyl)acetamide]"
23,5.08 nM,CC(=O)N[C@@H](Cc1ccccc1F)[C@H](O)CN[C@H]1CC2(CCC2)Oc2ncc(CC(C)(C)C)cc21 [compound 703]

# Same assay, conditions: cell based assay data, Table 4; unit inferred; read-out: Cell Assay
row,IC50,SMILES
1,11.2 nM,CC(=O)N[C@@H](Cc1cc(F)cc(F)c1)[C@H](O)CN[C@H]1CC2(CCC2)Oc2nc(F)c(CC(C)C)cc21 [compound 853]
2,65 nM,CC(=O)N[C@@H](Cc1ccc(OC(F)(F)F)cc1)[C@H](O)CN[C@H]1CC2(CCC2)Oc2ncc(CC(C)(C)C)cc21 [compound 712]
3,3.98 nM,CC(=O)N[C@@H](Cc1cccc(C(F)(F)F)c1)[C@H](O)CN[C@H]1CC2(CCC2)Oc2ncc(CC(C)(C)C)cc21 [compound 718]
4,88.2 nM,CC(=O)N[C@@H](Cc1cc(F)cc(F)c1)[C@H](O)CN[C@H]1CC2(CCC2)Oc2ccc(Br)cc21 [compound 774]
5,1.72 nM,CC(=O)N[C@@H](Cc1cc(F)cc(F)c1)[C@H](O)CN[C@H]1CC2(CCC2)Oc2ncc(CC(C)C)cc21 [compound 846]
6,803 nM,CC(=O)N[C@@H](Cc1cc(F)cc(F)c1)[C@H](O)CN[C@H]1CC2(CCC2)Oc2ccc(-n3nccn3)cc21 [compound 791]
7,58.5 nM,CC(=O)N[C@@H](Cc1cc(F)cc(F)c1)[C@H](O)CN[C@H]1CC2(CCC2)Oc2ccc(N[C@@H]3CCOC3)cc21 [compound 790]
8,2.05 nM,CC(=O)N[C@@H](Cc1cc(F)cc(F)c1)[C@H](O)CN[C@H]1CC2(CCC2)Oc2ncc(CC(C)(C)F)cc21 [compound 835]
9,≥ 10000 nM,"C=CC[C@H](NC(C)=O)[C@@H](O)CN[C@H]1CC2(CCC2)Oc2ncc(CC(C)(C)C)cc21 [compound 737, N-((1S)-1-((1S)-2-(((4′S)-6′-(2,2-dimethylpropyl)-3′,4′-dihydrospiro[cyclobutane-1,2′-pyrano[2,3-b]pyridin]-4′-yl)amino)-1-hydroxyethyl)-3-buten-1-yl)acetamide]"
10,197 nM,CC(=O)N[C@@H](Cc1ccccc1Br)[C@H](O)CN[C@H]1CC2(CCC2)Oc2ncc(CC(C)(C)C)cc21 [compound 810]
11,21.9 nM,CC(=O)N[C@@H](Cc1cc(F)cc(F)c1)[C@H](O)CN[C@H]1CC2(CCC2)Oc2c1cc(Cl)cc2-n1ccnc1 [compound 773]
12,14 nM,CC(=O)N[C@@H](Cc1ccccc1)[C@H](O)CN[C@H]1CC2(CCC2)Oc2cnc(CC(C)(C)C)cc21 [compound 749]
13,26.7 nM,"CC(=O)N[C@@H](Cc1ccc(Cl)cc1)[C@H](O)CN[C@H]1C[C@]2(C[C@H](C)C2)Oc2ncc(CC(C)(C)C)cc21 [compound 714, N-((1S,2R)-1-((4-chlorophenyl)methyl)-3-(((1s,3R,4′S)-6′-(2,2-dimethylpropyl)-3-methyl-3′,4′-dihydrospiro[cyclobutane-1,2′-pyrano[2,3-b]pyridin]-4′-yl)amino)-2-hydroxypropyl)acetamide]"
14,2.33 nM,CC(=O)N[C@@H](Cc1cc(Cl)ccc1F)[C@H](O)CN[C@H]1CC2(CCC2)Oc2ncc(CC(C)(C)C)cc21 [compound 867]
15,31 nM,CC(=O)N[C@@H](Cc1cccc(F)c1F)[C@H](O)CN[C@H]1CC2(CCC2)Oc2ncc(CC(C)(C)F)cc21 [compound 833]
16,206 nM,CC(=O)N[C@@H](Cc1cccc(F)c1F)[C@H](O)CN[C@H]1CC2(CCC2)Oc2nc(F)c(CC(C)C)cc21 [compound 856]
17,1.82 nM,"CC(=O)N[C@@H](Cc1cncc(F)c1)[C@H](O)CN[C@H]1CC2(CCC2)Oc2ncc(CC(C)(C)C)cc21 [compound 830, N-((1S,2R)-3-(((4′S)-6′-(2,2-dimethylpropyl)-3′,4′-dihydrospiro[cyclobutane-1,2′-pyrano[2,3-b]pyridin]-4′-yl)amino)-1-((5-fluoro-3-pyridinyl)methyl)-2-hydroxypropyl)acetamide]"
18,166 nM,CC(=O)N[C@@H](Cc1ccccc1)[C@H](O)CN[C@H]1CC2(CCC2)Oc2ccc(NC3CCCC3)cc21 [compound 771]

# Same assay, conditions: cells stably expressing APP, 24 h incubation with compound, Aβ40 in supernatant by sandwich ELISA; read-out: IC50 values in the cell-based assay (inhibition or reduction of Aβ40)
row,IC50,SMILES
1,≤ 5000 nM,CC(=O)N[C@@H](Cc1ccccc1)[C@H](O)CN[C@H]1CC2(CCC2)Oc2ncc(C3CCCO3)cc21 (stereo partly drawn) [Example 384]
